Measurements: US5578622A, “Isothiazole derivatives and their uses” (Asamura Patent Office, priority 1994, dated 1996)

What was measured:
Tyromyces palustris = experiment: Test for wood rotting-preventing effect (mycelium growth inhibition on malt extract agar); assay type: cell-based; details: 28° C.±2° C., 2 to 10 days, read-out: Rotting preventing effect (mycelium growth-inhibitory rate), TYP
How it was run: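 Mycelial agar disks (4 mm) were placed on malt extract agar containing test compound at 50 ppm and grown at 28° C.±2° C. Colony diameter was measured 2-10 days after inoculation and converted to percent mycelium growth inhibition, reported as symbol grades.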

Trichoderma viride = experiment: as above; assay type: cell-based; details: 28° C.±2° C., 2 to 10 days, read-out: Rotting preventing effect (mycelium growth-inhibitory rate), TRV
How it was run: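 Mycelial agar disks (4 mm) placed on malt extract agar containing 50 ppm test compound and cultured at 28 °C ± 2 °C. Colony diameter measured 2–10 days after inoculation; growth-inhibitory rate (%) reported as symbol grades.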

[1] = system: Gibberella fujikuroi ("Bakanae" disease of rice); experiment: Test for rice seed-disinfecting effect; assay type: in vivo; details: Fusarium fujikuroi, 504 h, seed immersion 25° C. 24 hours, three weeks after treatment, read-out: Controlling effect (control of disease), "Bakanae" disease of rice
How it was run: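 Bakanae-infected unhulled rice seed soaked 24 hours at 25° C in 1000 ppm compound, then sown and germinated two days. Infected-seedling rate scored three weeks after treatment; control calculated against untreated plot and graded on a standard scale.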

[2] = system: Trichophyton mentagrophytes IFO 5810; experiment: In vitro antimicrobial activity on Trichophyton mentagrophytes; assay type: cell-based; set-up: key: A: Fungus is not observed at all with the naked eye.; B: Presence of fungus is slightly observed on shaking the test tube.; C: Fungus of about less than one-fourth that of the DMSO control group is observed with the naked eye.; Fungus of about less than half that of the DMSO control group is observed with the naked eye; details: 10 (ppm); SGB, 27° C., 7 days
Experimental: 3-3 In vitro antimicrobial activity on Trichophyton mentagrophytes To Trichophyton mentagrophytes IFO 5810 precultured at 27° C. for 2 to 3 weeks on a Sabouraud's glucose agar (SGA) slant medium was added a sterilized physiological salt solution containing 0.1% (W/V) Tween 80. After conidia were made free from the solution, the solution was filtered through a sterilized two-sheet gauze to remove the mycelium mass. The number of the conidia in the resulting suspension was counted with a globulimeter and adjusted so as to be 1×10^6 conidia/ml with a sterilized physiological salt solution containing 0.1%(W/V) Tween 80. This solution was used as an inoculum solution. Thereafter, 0.1 ml of this solution and 0.1 ml of the dimethyl sulfoxide (DMSO) solution of the test compound were added to 9.8 ml of Sabouraud's glucose broth (SGB), and shake-cultured at 27° C. for 7 days.

| SMILES | inhibition at 50 ppm (Tyromyces palustris) [%] | inhibition at 50 ppm (Trichoderma viride) [%] | pest or weed control at 1000 ppm [1] [%] | Antimycotic activity (degree of growth, naked eye), T.mentagrophytes [2] |
| --- | --- | --- | --- | --- |
| CS(=O)(=O)c1snc(OCC#CI)c1C#N [Compound 41, 3-(3-iodo-2-propynyloxy)-4-cyano-5-methylsulfonylisothiazole] | 95 to 100 | 95 to 100 | 95 to 100 | A |
| CN(C)c1snc(OCC#CI)c1C#N [Compound 30, 3-(3-iodo-2-propynyloxy)-4-cyano-5-dimethylaminoisothiazole] | 95 to 100 | 95 to 100 | 95 to 100 | A |
| CSc1snc(OCCC#CI)c1C#N [Compound 70] | 95 to 100 | 95 to 100 | 80 to 94 | A |
| CSc1snc(OC(C)OCC#CI)c1C#N (stereo not shown) [Compound 119] | 95 to 100 | 95 to 100 | 95 to 100 | A |
| CSc1nsc(SCOCC#CI)c1C#N [Compound 136] | 95 to 100 | 95 to 100 | 80 to 94 | A |
| N#Cc1c(OCC#CI)nsc1S(=O)(=O)C(F)F [Compound 43] | 95 to 100 | 95 to 100 | 95 to 100 | A |
| N#Cc1c(OCC#CI)nsc1SC(F)F [Compound 12, 3-(3-iodo-2-propynyloxy)-4-cyano-5-difluoromethylthioisothiazole] | 95 to 100 | 95 to 100 | 95 to 100 | A |
| COc1nsc(OCC#CI)c1C#N [Compound 48] | 95 to 100 | 95 to 100 | 95 to 100 | A |
| COc1snc(OCC#CI)c1C#N [Compound 21, 3-(3-iodo-2-propynyloxy)-4-cyano-5-methoxyisothiazole] | 95 to 100 | 95 to 100 | 95 to 100 | A |
| N#Cc1c(OC(F)F)nsc1OCCC#CI [Compound 82] | 95 to 100 | 95 to 100 | 95 to 100 | A |
| N#Cc1c(OC(F)F)nsc1SCOCC#CI [Compound 60] | 95 to 100 | 95 to 100 | 95 to 100 | A |
| CSc1snc(OCC#CI)c1C#N [Compound 1, 3-(3-iodo-2-propynyloxy)-4-cyano-5-methylthioisothiazole] | 95 to 100 | 95 to 100 | 95 to 100 | A |
| N#Cc1c(OCOCC#CI)nsc1SC(F)F [Compound 90] | 95 to 100 | 95 to 100 | 95 to 100 | A |
| CCOc1snc(OCOCC#CI)c1C#N [Compound 96] | 95 to 100 | 95 to 100 | 95 to 100 | A |
| CC(C)Oc1snc(OCC#CI)c1C#N [Compound 23] | 95 to 100 | 95 to 100 | 95 to 100 | A |
| CCOc1nsc(SCOCC#CI)c1C#N [Compound 54] | 95 to 100 | 95 to 100 | 95 to 100 | A |
